How the values were obtained:
[1] = target: T1, Fatty acid-binding protein, heart (Homo sapiens, UniProt P05413); experiment: Binding affinity to human FABP3 expressed in Escherichia coli BL21 (DE3) in DMPC liposomes by surface plasmon resonance analysis
[2] = target: T1, Fatty acid-binding protein, heart; experiment: Binding affinity to human FABP3 expressed in Escherichia coli BL21 (DE3) at 60 uM by surface plasmon resonance analysis
[3] = target: T1, Fatty acid-binding protein, heart; experiment: Binding affinity to human FABP3 expressed in Escherichia coli BL21 (DE3) at 10 uM in DMPC liposomes by surface plasmon resonance analysis

T1 sequence (P05413 whole entry): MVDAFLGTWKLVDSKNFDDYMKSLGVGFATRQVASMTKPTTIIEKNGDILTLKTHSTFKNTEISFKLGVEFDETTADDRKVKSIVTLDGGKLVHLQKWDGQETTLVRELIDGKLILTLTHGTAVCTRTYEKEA

Row | Kd [1] [nM] | Kd [3] [nM] | SMILES | Kd [2] [nM]
1 | 2.76 | – | CC/C=C\C/C=C\C/C=C\CCCCCCCC(=O)O | –
2 | – | – | CCCCCCCCCCCCCC(=O)OC[C@H](COP(=O)(O)OCC[N+](C)(C)C)OC(=O)CCCCCCCCCCCCC | 3.6
3 | – | 401 | CCCCCCCCCCC/C=C\CCCCC(=O)O | 54200
